From PMC5428354, “Screening of a natural compound library identifies emodin, a natural compound from Rheum palmatum Linn that inhibits DPP4” (PeerJ, 2017)
Values joined by “and” are separate entries in the source; they are usually repeats but may differ in a detail not shown here. Equal values may be shown once.

Assays:
DPP4 [1] = target: T1, DPP4 (Homo sapiens, UniProt P27487); assay: Dialysis assay followed by DPP4 assay; assay type: biochemical
Method: Dialysis assay was performed using Slide-A-Lyzer Dialysis Cassettes (Pierce, Shanghai, China). Briefly, 2 mg DPP4 protein was incubated with emodin or dimethyl sulfoxide (DMSO) in 4 ml diluted assay buffer for 10 min at 37 °C. Mixed reaction solution was loaded onto a dialysis cartridge using a syringe and incubated at 4 °C for 8 h. The samples were removed from Dialysis Cassettes by syringes for DPP4 assay.

plasma DPP4 activity [2] = target: T2, plasma DPP4 activity (Mus musculus, UniProt P28843); assay: Plasma DPP4 activity after oral emodin (DPP4-Glo assay kit); assay type: in vivo, mice; conditions: individual animals; for plasma DPP4 activity, raw signal: Balb/c mice; for DPP4 activity, raw signal: ob/ob mice
T2 construct: followed by plasma collection at different time points to measure DPP4 activity in the blood; from tissue; host or cells: mouse plasma (Balb/c and ob/ob mice)
T2 sequence (P28843 37-760 limits assumed): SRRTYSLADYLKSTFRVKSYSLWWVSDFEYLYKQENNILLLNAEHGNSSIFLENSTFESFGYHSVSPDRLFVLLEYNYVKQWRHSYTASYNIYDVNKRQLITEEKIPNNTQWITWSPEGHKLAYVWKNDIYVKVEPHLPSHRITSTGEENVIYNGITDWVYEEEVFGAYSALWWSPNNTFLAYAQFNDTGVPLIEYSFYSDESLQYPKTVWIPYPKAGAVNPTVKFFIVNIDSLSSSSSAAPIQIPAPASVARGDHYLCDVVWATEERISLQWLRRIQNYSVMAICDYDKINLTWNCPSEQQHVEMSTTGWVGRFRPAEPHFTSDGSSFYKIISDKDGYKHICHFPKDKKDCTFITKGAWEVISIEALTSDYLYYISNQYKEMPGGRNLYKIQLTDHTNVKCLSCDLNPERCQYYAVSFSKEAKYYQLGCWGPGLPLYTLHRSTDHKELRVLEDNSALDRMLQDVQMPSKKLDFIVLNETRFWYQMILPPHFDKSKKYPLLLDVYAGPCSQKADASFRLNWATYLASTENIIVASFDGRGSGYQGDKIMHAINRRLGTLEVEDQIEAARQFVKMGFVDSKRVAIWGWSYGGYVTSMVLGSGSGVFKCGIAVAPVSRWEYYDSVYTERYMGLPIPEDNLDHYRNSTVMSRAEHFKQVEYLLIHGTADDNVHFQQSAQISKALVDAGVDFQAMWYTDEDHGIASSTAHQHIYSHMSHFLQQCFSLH
Method: Balb/c mice (male, six weeks) and ob/ob (-/-) mice (male, six weeks) were purchased from the Shanghai SLAC Laboratory Animal Co. Ltd. (Shanghai, China) and maintained in an air-conditioned room at 20–25 °C under a 12 h dark/light cycle and fed certified standard chow and tap water ad libitum. Experiments were conducted in compliance with the Guide for the Care and Use of Laboratory Animals. Mice were orally administered with emodin (3, 10, or 30 mg /kg) and had their blood collected at 0.5, 1, 2, and 4 h after emodin treatment. The samples were subjected to plasma isolation immediately after collection. Plasma samples were tested for DPP4 activity with a DPP4-Glo assay kit (Promega, Beijing, China) according to the manufacturer’s protocol. The experimental protocol was approved by Animal Care and Use Committee of Xiamen University(XM2015030514).
To test the inhibitory activity of emodin on DPP4 in vivo, an animal experiment was conducted by oral administration of emodin (3, 10 and 30 mg/kg, P.O., n = 5) to Balb/c mice, followed by plasma collection at different time points to measure DPP4 activity in the blood. Plasma samples were collected at 0, 0.5, 1, 2 and 4 h after the oral dose of emodin, and plasma DPP4 activity was measured with a DPP4-Glo assay kit. […] The lowest does of emodin (3 mg/kg) decreased plasma DPP4 activity from baseline, although these levels rebounded after 1 h, whereas 10 and 30 mg/kg doses of emodin decreased plasma DPP4 activity and maintained the lower levels until 2 h post-treatment (Fig. 4). This dose-dependent manner is probably due to the pharmacokinetics of emodin, and 10 and 30 mg/kg have maximized the pharmacokinetic coverage, while 3 mg/kg emodin is only sufficient to maintain 1 h DPP4 inhibition in vivo. In the subsequent experiment, emodin (30 mg/kg, P.O.) was administered on Balb/C mice (n = 5) or ob/ob (-/-) mice (n = 5). The DPP4 activity, blood glucoselevels and GLP-1 activity were tested 0, 1, 2, 4, 8 h after administration. […] This downregulation maintained 2 h in Balb/C mice, and 4 h in ob/ob (-/-) mice, which rebounded afterwards (Fig. 5A). […] Plasma GLP-1 activity was also measured.

plasma DPP4 activity [3] = target: T2, plasma DPP4 activity; assay: as above; assay type: in vivo, mice; conditions: for plasma DPP4 activity, raw signal / DPP4 activity, raw signal: individual animals; for DPP4 activity, raw signal: C57BL/6 (head)
DPP4 [4] = target: T1, DPP4; assay: Dialysis assay followed by DPP4 assay; assay type: biochemical; conditions: 0 hr of dialysis; triplicate
F344/N rats = tested on: F344/N rats; parameters: method as in National Toxicology Program, 2001; Wang & Chung, 1997; conditions: male F344/N rats, 280–2,500 ppm; ref National Toxicology Program, 2001; Wang & Chung, 1997; cited from earlier work
DPP9 = target: T3, DPP9 (Homo sapiens, UniProt Q86TI2); assay: DPP9 activity assay (BPS Bioscience kit); assay type: biochemical; conditions: tested at 100 µM
T3 construct: purchased BPS Bioscience 800209
T3 sequence (Q86TI2 whole entry): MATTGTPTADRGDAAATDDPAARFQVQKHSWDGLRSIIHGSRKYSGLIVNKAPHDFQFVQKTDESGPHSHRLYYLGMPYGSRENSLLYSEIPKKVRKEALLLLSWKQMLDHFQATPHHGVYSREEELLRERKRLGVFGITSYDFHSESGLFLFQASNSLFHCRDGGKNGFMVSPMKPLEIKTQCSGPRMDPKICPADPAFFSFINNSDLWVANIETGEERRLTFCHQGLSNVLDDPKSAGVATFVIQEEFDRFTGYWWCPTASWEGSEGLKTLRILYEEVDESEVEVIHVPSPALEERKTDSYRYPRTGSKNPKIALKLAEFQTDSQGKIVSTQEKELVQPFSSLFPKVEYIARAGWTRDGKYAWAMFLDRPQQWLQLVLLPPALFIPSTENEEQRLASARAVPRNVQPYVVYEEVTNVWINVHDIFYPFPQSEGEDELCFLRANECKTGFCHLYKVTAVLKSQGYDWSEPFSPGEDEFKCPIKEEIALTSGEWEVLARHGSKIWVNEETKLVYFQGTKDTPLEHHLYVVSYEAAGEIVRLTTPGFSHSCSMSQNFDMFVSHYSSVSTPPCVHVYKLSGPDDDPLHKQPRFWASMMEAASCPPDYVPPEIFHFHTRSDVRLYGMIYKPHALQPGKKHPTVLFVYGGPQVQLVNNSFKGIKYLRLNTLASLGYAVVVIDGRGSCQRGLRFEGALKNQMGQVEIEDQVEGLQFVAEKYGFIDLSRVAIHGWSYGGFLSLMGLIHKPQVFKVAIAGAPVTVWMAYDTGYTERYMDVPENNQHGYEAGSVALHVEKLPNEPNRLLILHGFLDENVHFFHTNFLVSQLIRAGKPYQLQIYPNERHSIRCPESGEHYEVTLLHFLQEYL
Method: A DPP9 assay kit was purchased from BPS Bioscience (Cat# 800209), and the assay protocol was followed to test for inhibitory activity against DPP9. Briefly, DPP substrate 1 was diluted to make a 100 µM stock solution, and DPP9 protein was diluted in DPP assay buffer to 2 ng/µl (20 ng/reaction). For the tested compounds, 10 µl of diluted DPP9 protein, 5 µl of diluted DPP substrate 1, 84 µl of DPP assay buffer and 1 µl of inhibitor were added into the assay system for a total volume of 100 µl. […]

[5] = Blood glucose levels after oral emodin; assay type: in vivo, mice; parameters: unit not given here; conditions: 30 mg/kg P.O., C57BL/6 (head), individual animals
GLP-1 = assay: Plasma GLP-1 activity after oral emodin; assay type: in vivo, mice; parameters: GLP-1: unit not given here; conditions: 30 mg/kg P.O.; for GLP-1: ob/ob mice, individual animals
Method: In the subsequent experiment, emodin (30 mg/kg, P.O.) was administered on Balb/C mice (n = 5) or ob/ob (-/-) mice (n = 5). […] This downregulation maintained 2 h in Balb/C mice, and 4 h in ob/ob (-/-) mice, which rebounded afterwards (Fig. 5A). […] Plasma GLP-1 activity was also measured.

[6] = 30 mg/kg P.O., 0 hours (baseline)

T1 sequence (P27487 whole entry, species assumed): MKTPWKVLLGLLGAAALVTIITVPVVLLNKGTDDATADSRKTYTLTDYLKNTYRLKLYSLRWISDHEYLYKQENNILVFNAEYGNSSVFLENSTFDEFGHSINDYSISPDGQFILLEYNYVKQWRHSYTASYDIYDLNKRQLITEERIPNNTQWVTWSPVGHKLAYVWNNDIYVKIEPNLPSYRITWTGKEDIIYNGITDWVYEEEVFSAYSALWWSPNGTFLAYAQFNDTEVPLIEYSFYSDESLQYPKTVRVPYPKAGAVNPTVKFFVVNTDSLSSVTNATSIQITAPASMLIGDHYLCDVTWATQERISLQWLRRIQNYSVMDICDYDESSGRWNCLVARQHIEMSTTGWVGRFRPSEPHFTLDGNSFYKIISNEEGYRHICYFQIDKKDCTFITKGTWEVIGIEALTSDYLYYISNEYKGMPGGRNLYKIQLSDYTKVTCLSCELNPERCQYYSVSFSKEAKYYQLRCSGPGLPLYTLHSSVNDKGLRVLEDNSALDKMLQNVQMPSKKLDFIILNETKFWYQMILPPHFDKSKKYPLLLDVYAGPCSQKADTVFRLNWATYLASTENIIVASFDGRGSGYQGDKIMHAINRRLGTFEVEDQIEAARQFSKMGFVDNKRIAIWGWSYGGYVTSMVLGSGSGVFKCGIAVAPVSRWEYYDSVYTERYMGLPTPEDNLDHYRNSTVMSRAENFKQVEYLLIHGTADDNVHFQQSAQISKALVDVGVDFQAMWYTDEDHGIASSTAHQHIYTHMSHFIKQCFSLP

## Cc1cc(O)c2c(c1)C(=O)c1cc(O)cc(O)c1C2=O [Emodin]
DPP4 [1]; 8 hr of dialysis, triplicate
  DPP4 activity in dialysis assay: 90 % of DMSO and 88 % of DMSO and 85 % of DMSO
  DPP4 activity in dialysis assay, raw signal: 4500000 RLU and 4400000 RLU and 4250000 RLU
DPP4 [1]; dialysis 8 h at 4 °C
  manner of binding to the DPP4 active site: reversible manner
Plasma DPP4 activity [2]; 3 mg/kg P.O., time 1 h
  plasma DPP4 activity, raw signal: 213620 and 121520 and 101880
Plasma DPP4 activity [2]; 10 mg/kg P.O., time 0.5 h
  plasma DPP4 activity, raw signal: 241067 and 195640 and 202693
Plasma DPP4 activity [2]; [6]
  DPP4 activity, raw signal: 3401200 and 3668100 and 3319500 and 3595400 and 3453300
Plasma DPP4 activity [2]; 30 mg/kg P.O., 1 hours
  DPP4 activity, raw signal: 3125000 and 3575300 and 2433200 and 3311900 and 2854200
Plasma DPP4 activity [2]; 30 mg/kg P.O., 2 hours
  DPP4 activity, raw signal: 3363400 and 2959900 and 2928700 and 2749100
Plasma DPP4 activity [2]; 30 mg/kg P.O., 4 hours
  DPP4 activity, raw signal: 3275000 and 2989300 and 2592200 and 2835500 and 2877800
Plasma DPP4 activity [2]; 30 mg/kg P.O., 8 hours
  DPP4 activity, raw signal: 3489100 and 3461100 and 2912800 and 3032000 and 2847400
Plasma DPP4 activity [2]; 30 mg/kg P.O., time 2 h
  plasma DPP4 activity, raw signal: 196547 and 112320 and 158453
Plasma DPP4 activity [2]; 30 mg/kg P.O., time 4 h
  plasma DPP4 activity, raw signal: 339907 and 323187 and 357187
Plasma DPP4 activity [3]; 3 mg/kg P.O., Balb/c mice, rebounded afterwards
  time for which plasma DPP4 activity stayed decreased: 1 h
Plasma DPP4 activity [3]; 3 mg/kg P.O., time 0 h (baseline), Balb/c mice
  plasma DPP4 activity, raw signal: 200500 and 223040 and 210853
Plasma DPP4 activity [3]; 3 mg/kg P.O., time 0.5 h, Balb/c mice
  plasma DPP4 activity, raw signal: 157120 and 186480 and 184560
Plasma DPP4 activity [3]; 3 mg/kg P.O., time 2 h, Balb/c mice
  plasma DPP4 activity, raw signal: 291827 and 237493 and 317253
Plasma DPP4 activity [3]; 3 mg/kg P.O., time 4 h, Balb/c mice
  plasma DPP4 activity, raw signal: 377573 and 331360 and 321880
Plasma DPP4 activity [3]; 10 mg/kg P.O., time 0 h (baseline), Balb/c mice
  plasma DPP4 activity, raw signal: 349733 and 267840 and 314147
Plasma DPP4 activity [3]; 10 mg/kg P.O., time 1 h, Balb/c mice
  plasma DPP4 activity, raw signal: 158860 and 133520 and 164280
Plasma DPP4 activity [3]; 10 mg/kg P.O., time 2 h, Balb/c mice
  plasma DPP4 activity, raw signal: 158760 and 116813 and 222440
Plasma DPP4 activity [3]; 10 mg/kg P.O., time 4 h, Balb/c mice
  plasma DPP4 activity, raw signal: 367160 and 355600 and 350787
Plasma DPP4 activity [3]; 30 mg/kg P.O., Balb/C mice, n = 5
  time for which downregulation of DPP4 activity was maintained: 2 h
Plasma DPP4 activity [3]; [6]
  DPP4 activity, raw signal: 2962300 and 3555100 and 2704100 and 2803100 and 3111100
Plasma DPP4 activity [3]; 30 mg/kg P.O., 1 hours
  DPP4 activity, raw signal: 2755900 and 3040800 and 2268700 and 2388700 and 2836800
Plasma DPP4 activity [3]; 30 mg/kg P.O., 2 hours
  DPP4 activity, raw signal: 3055900 and 3015200 and 2510000 and 2257000 and 2971200
Plasma DPP4 activity [3]; 30 mg/kg P.O., 4 hours
  DPP4 activity, raw signal: 2708000 and 3031400 and 2814800 and 2664500 and 2844400
Plasma DPP4 activity [3]; 30 mg/kg P.O., 8 hours
  DPP4 activity, raw signal: 3130600 and 3310000 and 2020300 and 3224400 and 3166700
Plasma DPP4 activity [3]; 30 mg/kg P.O., both Balb/C mice and ob/ob (-/-) mice
  effect on DPP4 activity: significant downregulation
Plasma DPP4 activity [3]; 30 mg/kg P.O., ob/ob (-/-) mice, n = 5
  time for which downregulation of DPP4 activity was maintained: 4 h
Plasma DPP4 activity [3]; 30 mg/kg P.O., time 0 h (baseline), Balb/c mice
  plasma DPP4 activity, raw signal: 290800 and 216573 and 224480
Plasma DPP4 activity [3]; 30 mg/kg P.O., time 0.5 h, Balb/c mice
  plasma DPP4 activity, raw signal: 175387 and 222147 and 170307
Plasma DPP4 activity [3]; 30 mg/kg P.O., time 1 h, Balb/c mice
  plasma DPP4 activity, raw signal: 159040 and 152000 and 181707
Plasma DPP4 activity [3]; 3, 10 and 30 mg/kg, P.O., Balb/c mice, n = 5
  effect on plasma DPP4 activity: decreased the plasma DPP4 activity in a dose-dependent manner
Plasma DPP4 activity [3]; 10 and 30 mg/kg P.O., Balb/c mice
  time until which lower plasma DPP4 activity was maintained: 2 h
DPP4 [4]
  DPP4 activity in dialysis assay: 55 % of DMSO and 58 % of DMSO and 62 % of DMSO
  DPP4 activity in dialysis assay, raw signal: 2750000 RLU and 2900000 RLU and 3100000 RLU
F344/N rats
  carcinogenic activity: no evidence of carcinogenic activity
DPP9
  activity against DPP9: without inhibiting
[5]; 0 hours (baseline)
  Blood glucose: 15.5 and 10.4 and 10.9 (2×) and 11.2
[5]; 1 hours
  Blood glucose: 10.8 (2×) and 12.2 and 9.3 and 9.7
[5]; 2 hours
  Blood glucose: 9.3 and 9.7 and 8.4 and 8.3 and 8
[5]; 4 hours
  Blood glucose: 8.3 and 7.4 and 7.6 and 9.1 and 7.9
[5]; 8 hours
  Blood glucose: 15.9 and 11.5 and 12.6 (2×) and 15.3
GLP-1; Balb/C and ob/ob (-/-) mice
  effect on plasma GLP-1 activity: marginal effect
GLP-1; 0 hours (baseline)
  GLP-1: 1.6192 and 1.6714 and 1.7758 and 1.3843 and 3.4984
GLP-1; 1 hours
  GLP-1: 2.9503 and 1.4365 and 2.8459 and 1.8541 and 2.8981
GLP-1; 2 hours
  GLP-1: 3.5245 and 3.4201 and 0.5491 and 2.4022 and 2.2456
GLP-1; 4 hours
  GLP-1: 0.9667 and 2.1673 and 1.2538 and 1.5148 and 2.9503
GLP-1; 8 hours
  GLP-1: 3.655 and 0.784 and 1.2277 and 3.1852
